Assay results reported in US5068247A, “2-aminopentanoic acid compounds and their use as immunosuppressants” (priority 1989, dated 1991).
Where two headings read alike, the source gives them in different places.

Assays:
[1] = test system: human allogenic MLR (human peripheral blood lymphocytes); test: human allogenic MLR-suppressive activity, 3H-thymidine uptake; assay type: cell-based; conditions: for suppressive activity in human allogenic MLR (in words): 1 to 0.0001 μg/ml
Procedure: The human allogenic MLR-suppressive activity was assayed as follows:
Human peripheral blood lymphocytes obtained by Ficoll-Paque density gradient centrifugation of normal human peripheral blood were suspended in the RPMI1640 culture medium supplemented with 10% FCS, placed in a plastic dish, and cultured in an atmosphere of 5% carbon dioxide and 95% air at 37° C. for 2 hours. After termination of culture, the supernatant after gentle pipetting was collected and centrifuged (1000 rpm, for 5 minutes) to obtain plastic-nonadherent cells. The plastic-nonadherent cells were allowed to pass through a nylon-wool column to give nylon-nonadherent cells, and the concentration of the cell suspension was adjusted to 4×10^6 cells/ml by using the RPMI1640 culture medium supplemented with 10% FCS, and used as the responder cell suspension.
The plastic-adherent cells were removed from the plastic dish by vigorous pipetting after addition of phosphate buffered saline (PBS) supplemented with 5% FCS and 0.02% disodium ethylenediaminetetraacetic acid (EDTA). The plastic-adherent cells were treated with 40 μg/ml of mitomycin C at 37° C. for 60 minutes, washed three times, and suspended to the concentration of 4×10^6 cells/ml in the RPMI1640 culture medium supplemented with 10% FCS. The resultant suspension was used as the stimulator cell suspension.
After termination of culture, 37 KBq/well of ^3 H-thymidine was added, and after 18 hours of culture, the cells were harvested by a cell-harvester. The radioactivity incorporated into the cells was measured by a liquid scintillation counter, which was used as an index of blastogenic response of lymphocytes in human allogenic MLR. The suppression of human allogenic MLR was evaluated by calculating the percent suppression by the following formula. [formula]

[2] = test system: allo-reactive cytotoxic T cell (EL4 target cells); test: suppression of induction of allo-reactive cytotoxic T cell in mouse allogenic mixed lymphocyte culture (MLC), 51Cr release; assay type: cell-based
Procedure: The target cells used were leukemia cells EL4 from the syngenic (H-2^b) C57BL/6 mouse as used for preparation of the stimulator cells. By incubating 10^6 EL4 cells in the presence of 370 KBq of Na2^51 CrO4 at 37° C. for 1 hour, ^51 Cr was incorporated into the cytoplasm. The cells were washed, adjusted to the concentration of 10^4 cells/ml and used as the target cells.
For the assay of the cytotoxic activity, 100 μl of the effector cell suspension and 100 μl of the target cell suspension were added to a 96-well flat-bottomed microculture plate, and cultured at 37° C. for 4 hours. The amount of ^51 Cr released into the supernatant was determined and the cytotoxic activity was calculated by the following formula. [formula]
The activity of the cytotoxic T cell is expressed by LU (lytic unit) per 10^6 effector cells.

For `CCCCCCCCCCCCCCCC[C@@H](O)[C@H](O)[C@@](N)(CO)C(=O)O` [Example 2], the 3H-thymidine uptake ([1]; 0.00001 μg/ml, Donor C/Donor D) was 13909 cpm, the 3H-thymidine uptake ([1]; 0.0001 μg/ml, Donor C/Donor D) was 15259 cpm and the 3H-thymidine uptake ([1]; 0.001 μg/ml, Donor A/Donor B) was 9258 cpm. It also gave a 3H-thymidine uptake ([1]; 0.001 μg/ml, Donor C/Donor D) of 15503 cpm, a 3H-thymidine uptake ([1]; 0.01 μg/ml, Donor A/Donor B) of 8119 cpm and a 3H-thymidine uptake ([1]; 0.01 μg/ml, Donor C/Donor D) of 11263 cpm. It also gave a 3H-thymidine uptake ([1]; 0.1 μg/ml, Donor A/Donor B) of 4624 cpm, a 3H-thymidine uptake ([1]; 0.1 μg/ml, Donor C/Donor D) of 7300 cpm and a 3H-thymidine uptake ([1]; 1 μg/ml, Donor A/Donor B) of 7130 cpm. The 3H-thymidine uptake ([1]; 1 μg/ml, Donor C/Donor D) was 6583 cpm, the “suppressive activity in human allogenic MLR (in words)” value [1] was “exhibited suppressive activity in human allogenic MLR in a concentration-dependent manner” and the inhibition at 10 pg/mL ([1]; Homo sapiens, Lymphocyte, read-out: Suppression, 0.00001 μg/ml, Donor C/Donor D) was 31.4%. The inhibition at 0.0001 µg/mL ([1]; Homo sapiens, Lymphocyte, read-out: Suppression, 0.0001 μg/ml, Donor C/Donor D) was 24.5%, the inhibition at 0.001 µg/mL ([1]; Homo sapiens, Lymphocyte, read-out: Suppression, 0.001 μg/ml, Donor A/Donor B) was 23.6% and the inhibition at 0.001 µg/mL ([1]; Homo sapiens, Lymphocyte, read-out: Suppression, 0.001 μg/ml, Donor C/Donor D) was 23.2%. For the same compound, the inhibition at 0.01 µg/mL ([1]; Homo sapiens, Lymphocyte, read-out: Suppression, 0.01 μg/ml, Donor A/Donor B) was 33.8%, the inhibition at 0.01 µg/mL ([1]; Homo sapiens, Lymphocyte, read-out: Suppression, 0.01 μg/ml, Donor C/Donor D) was 44.9% and the inhibition at 0.1 µg/mL ([1]; Homo sapiens, Lymphocyte, read-out: Suppression, 0.1 μg/ml, Donor A/Donor B) was 65.2%. For the same compound, the inhibition at 0.1 µg/mL ([1]; Homo sapiens, Lymphocyte, read-out: Suppression, 0.1 μg/ml, Donor C/Donor D) was 65%, the inhibition at 1 µg/mL ([1]; Homo sapiens, Lymphocyte, read-out: Suppression, 1 μg/ml, Donor A/Donor B) was 42.7% and the inhibition at 1 µg/mL ([1]; Homo sapiens, Lymphocyte, read-out: Suppression, 1 μg/ml, Donor C/Donor D) was 68.7%. For the same compound, the Cytotoxic activity ([2]; 0.001 μg/ml, BALB/c responder) was 16.0 LU/10^6, the Cytotoxic activity ([2]; 0.01 μg/ml, BALB/c responder) was 13.0 LU/10^6 and the Cytotoxic activity ([2]; 0.1 μg/ml, BALB/c responder) was less than 1.0 LU/10^6. The Cytotoxic activity ([2]; 1 μg/ml, BALB/c responder) was less than 1.0 LU/10^6, the inhibition at 0.001 µg/mL ([2]; Mus musculus, T-cell, 144 h, 0.001 μg/ml, BALB/c responder) was 18.4% and the inhibition at 0.01 µg/mL ([2]; Mus musculus, T-cell, 144 h, 0.01 μg/ml, BALB/c responder) was 33.6%. The inhibition at 0.1 µg/mL ([2]; Mus musculus, T-cell, 144 h, 0.1 μg/ml, BALB/c responder) was greater than 95%, the inhibition at 1 µg/mL ([2]; Mus musculus, T-cell, 144 h, 1 μg/ml, BALB/c responder) was greater than 95% and the “induction of the allo-reactive cytotoxic T cell (in words), BALB/c responder” value ([2]; Table 3A) was “markedly inhibited”.

With `CCCCCCC(O)C=CCCCCC=CCC(O)C(O)C(N)(CO)C(=O)O` (stereo not shown) [Example 1] the 3H-thymidine uptake ([1]; 0.0001 μg/ml, Donor C/Donor D) was 20334 cpm, the 3H-thymidine uptake ([1]; 0.001 μg/ml, Donor A/Donor B) was 12137 cpm and the 3H-thymidine uptake ([1]; 0.001 μg/ml, Donor C/Donor D) was 15284 cpm. The 3H-thymidine uptake ([1]; 0.01 μg/ml, Donor A/Donor B) was 7479 cpm, the 3H-thymidine uptake ([1]; 0.01 μg/ml, Donor C/Donor D) was 7232 cpm and the 3H-thymidine uptake ([1]; 0.1 μg/ml, Donor A/Donor B) was 5590 cpm. It also gave a 3H-thymidine uptake ([1]; 0.1 μg/ml, Donor C/Donor D) of 5292 cpm, a 3H-thymidine uptake ([1]; 1 μg/ml, Donor A/Donor B) of 5613 cpm and a 3H-thymidine uptake ([1]; 1 μg/ml, Donor C/Donor D) of 6689 cpm. The “suppressive activity in human allogenic MLR (in words)” value [1] was “exhibited suppressive activity in human allogenic MLR in a concentration-dependent manner”, the inhibition at 0.0001 µg/mL ([1]; Homo sapiens, Lymphocyte, 0.0001 μg/ml, Donor C/Donor D, read-out: Suppression) was 1.4% and the inhibition at 0.001 µg/mL ([1]; Homo sapiens, Lymphocyte, 0.001 μg/ml, Donor A/Donor B, read-out: Suppression) was 0%. The inhibition at 0.001 µg/mL ([1]; Homo sapiens, Lymphocyte, 0.001 μg/ml, Donor C/Donor D, read-out: Suppression) was 24.4%, the inhibition at 0.01 µg/mL ([1]; Homo sapiens, Lymphocyte, 0.01 μg/ml, Donor A/Donor B, read-out: Suppression) was 39.6% and the inhibition at 0.01 µg/mL ([1]; Homo sapiens, Lymphocyte, 0.01 μg/ml, Donor C/Donor D, read-out: Suppression) was 65.4%. It also gave an inhibition at 0.1 µg/mL ([1]; Homo sapiens, Lymphocyte, 0.1 μg/ml, Donor A/Donor B, read-out: Suppression) of 56.5%, an inhibition at 0.1 µg/mL ([1]; Homo sapiens, Lymphocyte, 0.1 μg/ml, Donor C/Donor D, read-out: Suppression) of 75.3% and an inhibition at 1 µg/mL ([1]; Homo sapiens, Lymphocyte, 1 μg/ml, Donor A/Donor B, read-out: Suppression) of 56.3%. For the same compound, the inhibition at 1 µg/mL ([1]; Homo sapiens, Lymphocyte, 1 μg/ml, Donor C/Donor D, read-out: Suppression) was 68.2%.
